Measurements: PMC7821381, “Multi-Targeted Anticancer Activity of Imidazolate Phosphane Gold(I) Compounds by Inhibition of DHFR and TrxR in Breast Cancer Cells” (Frontiers in Chemistry, 2021)

Experiments:
[1] = target: T1, dihydrofolate reductase (DHFR) (Homo sapiens, UniProt P00374); experiment: DHFR specific enzymatic activity in lysates of treated MDA-MB231 cells; format: cell-based; conditions: 8 μM (maximum inhibition)
T1 construct: Cell lysates were collected using Cell Culture Lysis Reagent; endogenous in cells; host or cells: MDA-MB231 and SKBR3 (human breast cancer cells)
T1 sequence (P00374 1-187): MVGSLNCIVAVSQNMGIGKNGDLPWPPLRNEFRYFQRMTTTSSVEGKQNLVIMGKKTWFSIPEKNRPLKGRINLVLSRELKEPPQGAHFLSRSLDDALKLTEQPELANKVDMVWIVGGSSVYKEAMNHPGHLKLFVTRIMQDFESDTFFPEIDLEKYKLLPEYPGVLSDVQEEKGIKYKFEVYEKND
Experimental: SKBR3, MDA-MB-231 and A17 cells were plated onto 100 mm cell culture dishes (2 × 10^6 cells/ dish). The day after, cells were treated with vehicle alone (DMSO) as control or increasing concentrations of compound 5 and compound 6 in DMEM supplemented with 2% FBS (Invitrogen, Carlsbad, CA) for 4 h or 12 h. Representative pictures of cells treated with compound 5 or 6 at the indicated concentration for 4 or 12 h just before to take cell lysates for the enzymatic tests are reported as supplemental files. Cell lysates were collected using Cell Culture Lysis Reagent (Promega, Madison, WI) supplemented with BSA (1%) and protease inhibitors. DHFR activity was assessed by spectrophotometric assay as reported elsewhere (Wang et al., [2020]) in which the reaction rate was followed by recording the decreasing absorbance at 340 nm due to oxidation of NADPH to NADP^+, using a Shimadzu UV-2450 spectrophotometer. When necessary, because of low protein content in the lysates, the DHFR enzymatic activity was measured by a discontinuous direct HPLC assay using an Agilent 1100 system. HPLC-DAD (Agilent 1100) was used to detect and quantify the presence of NADP^+, as one of the products of DHFR catalyzed reaction, in cell lysates. Fifty microliter of the cell lysate were incubated at 37°C in a reaction mixture containing 760 μl of buffer (0.05 M Hepes pH 7.3), 20 μl of NADPH 4 mM, and 20 μl of dihydrofolate (H2F) 4 mM. The samples for HPLC analysis were prepared as follows: 50 μl aliquots of each mixture were stopped at different times (0, 5, 10, 20, 30, and 60 min) by adding 25 μl of HClO4 1.2 M; after 10 min on ice and centrifugation for 5 min at 12,000 g, 60 μl of each supernatant were neutralized by adding 17.5 μl of K2CO3 0.79 M, kept on ice and centrifuged again. Fifty microliter of the supernatant obtained were directly injected into the reversed phase column for separations of reagents and products of the enzyme catalyzed reaction. The column used is a Supelcosil LC RP 18 (4.6 × 250 mm) with pre-column SupelGuard. The HPLC settings are the same reported in Wang et al. ([2020]). The amounts of product (NADP^+) were determined from the peak areas of the HPLC-separated compounds with reference to appropriate standards. One enzyme unit is defined as the amount of enzyme which catalyzes the reduction of 1 μmol of dihydrofolate, per minute, at 37°C. Enzyme activities were normalized by the protein content, determined by the Bradford assay (Bradford, [1976]).

[2] = tested on: DAPI-ct-DNA complex; experiment: Minor groove displacement assay with DAPI (DAPI-ct-DNA); format: binding, calf; conditions: competitive DAPI displacement, fluorescence quenching, pH 7.4
Experimental: The changes in the emission spectra of DAPI complex with the DNA in 10 mM tris-HCl buffer at pH 7.4, 10 mM NaCl, were monitored upon addition of increasing concentrations of gold-compounds 5 and 6 at room temperature. Fluorescence quenching data were evaluated after excitation of DAPI-ct-DNA complex at 338 nm and recording the spectra from 400 to 600 nm. Values of Ksv constants were evaluated using Equation 3 and the quenching fluorescence values obtained were corrected according to Equation 2.

[3] = tested on: calf thymus DNA (ct-DNA); experiment: UV-Vis absorption titration with ct-DNA; format: binding; conditions: as restated in the discussion
Experimental: Stock solutions of calf thymus DNA (ct-DNA) (Sigma–Aldrich) were prepared by dissolving the DNA powder overnight in 10 mM Tris–HCl pH 7.4, 10 mM NaCl and incubated under stirrer at 4°C for 12h. […] The concentration of the ct-DNA solution was determined by UV absorbance at 260 nm. The molar absorption coefficient at 260 nm, was taken as 6,600 M^−1 cm^−1 (Marmur, [1961]). Stock solutions of gold(I) complexes (compounds 5 and 6) were prepared in DMSO. Absorption titration experiments performed with fixed concentrations of the different gold(I) complexes (25 μM, in 10 mM Tris–HCl pH 7.4, 10 mM NaCl), gradually increasing the concentration of DNA. After addition of DNA to the compounds, the resulting solution was allowed to […] equilibrate at room temperature for 5 min. Then, the sample solution was scanned in the range 220–600 nm. For the different compounds the binding constant (Kb) was determined from the spectroscopic titration data using the following equation
[DNA]/(εa-εf)=[DNA]/(εb-εf)+1/Kb(εb-εf),Equation 1
where [DNA] is the concentration of DNA in base pairs, the apparent absorption coefficient (εa) was obtained by calculating Aobsd/[compound]. The terms εf and εb correspond to the extinction coefficient of free (unbound) and the fully bound compound, respectively. A plot of [DNA]/(εa-εf) vs. [DNA] will give a slope 1/(εb-εf) and an intercept 1/Kb(εb-εf). […]

[4] = target: T2, Human apoTF (ATF) (Homo sapiens, UniProt P02787); experiment: Transferrin (ATF) fluorescence quenching; format: binding; conditions: Stern-Volmer constant, Tris-HCl pH 7.4, 25°C
T2 construct: purchased Sigma Aldrich
T2 sequence (P02787 20-698): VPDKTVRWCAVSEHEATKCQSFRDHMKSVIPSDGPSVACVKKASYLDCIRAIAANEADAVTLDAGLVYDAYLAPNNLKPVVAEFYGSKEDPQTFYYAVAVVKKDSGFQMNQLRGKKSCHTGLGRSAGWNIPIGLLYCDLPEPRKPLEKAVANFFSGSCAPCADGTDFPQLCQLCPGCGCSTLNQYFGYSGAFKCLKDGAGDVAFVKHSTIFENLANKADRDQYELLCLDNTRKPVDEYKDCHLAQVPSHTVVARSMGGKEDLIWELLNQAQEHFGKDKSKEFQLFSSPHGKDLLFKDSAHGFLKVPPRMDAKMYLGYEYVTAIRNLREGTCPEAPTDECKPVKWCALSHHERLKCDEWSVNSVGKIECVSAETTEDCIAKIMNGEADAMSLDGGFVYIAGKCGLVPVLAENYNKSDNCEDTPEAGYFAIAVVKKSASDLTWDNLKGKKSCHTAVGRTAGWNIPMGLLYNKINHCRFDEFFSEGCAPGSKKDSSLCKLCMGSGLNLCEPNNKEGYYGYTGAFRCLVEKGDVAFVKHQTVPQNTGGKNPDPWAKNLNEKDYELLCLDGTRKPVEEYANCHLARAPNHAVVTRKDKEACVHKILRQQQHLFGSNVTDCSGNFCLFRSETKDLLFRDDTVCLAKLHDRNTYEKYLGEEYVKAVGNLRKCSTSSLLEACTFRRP
Experimental: Human apoTF (ATF) was purchased from Sigma Aldrich and its concentration was determined by measuring the absorbance at 278 nm (ε = 92,300 M^−1 cm^−1). To evaluate if compounds 5 and 6 were able to bind to ATF in vitro, fluorescence spectra were recorded from 300 nm to 450 nm upon tryptophan excitation at 285 nm. Fluorimetric titrations were performed by titrating a 2 mL sample (prepared in 10 mM Tris-HCl buffer pH 7.4, 10 mM NaCl) containing human ATF (12.5 μM) with incremental additions of different aliquots of gold-complexes (5 mM in DMSO). Protein fluorescence intensity was recorded after each successive addition of complex solution and equilibration (5 min). The value of Stern Volmer constants of the different metal complexes to ATF were evaluated following Equation 3 and fluorescent values were corrected by Equation 2. All titrations were performed at room temperature (25°C) and averages between two trials are reported.

[5] = MDA-MB231, 4 h treatment, control 5.38 ± 0.38
[6] = MDA-MB231, 12 h treatment, control 0.64 ± 0.02

Question: Which “Specific enzymatic activity of DHFR” value [1, 5] does the source give for “4,5-dichloro-imidazolate-1yl-gold(I)-(triphenylphosphane) [Compound 6]” here?
Answer: Its value is 1.75 ± 0.34 mU/mg.

Question: And the “Specific enzymatic activity of DHFR” value [1, 6]?
Answer: The value was 0.55 ± 0.002 mU/mg.

Question: And the “DAPI-ct-DNA Ksv” value [2]?
Answer: The value was 4.98 ± 0.08 10^3 M^−1.

Question: What about the “binding constant with ct-DNA” value [3] of the same substance?
Answer: Its value is 3.44 mM⁻¹.

Question: And the “ATF Ksv” value [4]?
Answer: The value was 1.51 ± 0.55 10^4 M^−1.

Question: For “4,5-dicyano-imidazolate-1yl-gold(I)-(triphenylphosphane) [Compound 5]”, which “Specific enzymatic activity of DHFR” value [1, 5] is on record?
Answer: Its value is 2.37 ±0.39 mU/mg.

Question: And the “Specific enzymatic activity of DHFR” value [1, 6]?
Answer: Its value is 0.42 ± 0.01 mU/mg.

Question: What about the “DAPI-ct-DNA Ksv” value [2] of the same substance?
Answer: Its value is 6.12 ± 0.09 10^3 M^−1.

Question: And the “binding constant with ct-DNA” value [3]?
Answer: The value was 1.46 mM⁻¹.

Question: What about the “ATF Ksv” value [4] of the same substance?
Answer: The value was 1.93 ± 0.44 10^4 M^−1.
